Assay results published in patent US10479780B2, “Aminopyrazole derivatives” (Chugai Seiyaku Kabushiki Kaisha, priority 2015, dated 2019).

Experiments:
Assay type in all cases: biochemical
human Src enzyme = target: T1, human Src enzyme (Homo sapiens, UniProt P12931); test: Src enzyme inhibitory activity (time-resolved fluorometry, biotinylated peptide phosphorylation); conditions: biotinylated peptide phosphorylation, read-out: SRC_IC50
T1 construct: purchased Carna Biosciences, Inc. 08-173
Summary of the method: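 Compounds were tested for blocking tyrosine phosphorylation of a biotinylated peptide substrate by recombinant human Src. Phosphorylated product was quantified by time-resolved fluorometry using europium cryptate and XL665 conjugates, and IC50 was calculated against the compound-free control.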

human Lck enzyme = target: T2, human Lck enzyme (Homo sapiens, UniProt P06239); test: Lck enzyme inhibitory activity (time-resolved fluorometry, biotinylated peptide phosphorylation); conditions: biotinylated peptide phosphorylation, read-out: LCK_IC50
T2 construct: purchased Carna Biosciences, Inc. 08-170
T2 sequence (P06239 whole entry): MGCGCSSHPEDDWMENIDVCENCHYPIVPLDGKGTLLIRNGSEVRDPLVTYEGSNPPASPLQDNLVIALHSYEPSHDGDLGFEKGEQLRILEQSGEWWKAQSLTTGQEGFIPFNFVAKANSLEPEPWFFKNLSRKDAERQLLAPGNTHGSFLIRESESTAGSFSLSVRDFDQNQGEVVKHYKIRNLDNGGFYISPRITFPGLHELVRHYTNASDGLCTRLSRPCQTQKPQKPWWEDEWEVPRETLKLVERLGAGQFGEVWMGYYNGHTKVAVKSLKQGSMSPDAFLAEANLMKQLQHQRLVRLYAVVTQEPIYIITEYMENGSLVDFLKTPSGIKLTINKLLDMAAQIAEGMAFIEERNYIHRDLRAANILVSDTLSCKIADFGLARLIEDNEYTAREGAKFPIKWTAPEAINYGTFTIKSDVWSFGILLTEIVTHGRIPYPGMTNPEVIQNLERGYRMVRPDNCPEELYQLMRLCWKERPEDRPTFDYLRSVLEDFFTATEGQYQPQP
Summary of the method: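 Readout pairs a europium cryptate-labelled anti-phosphotyrosine antibody with XL665-streptavidin, measured by time-resolved fluorescence. IC50 derived from percent inhibition against untreated controls.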

human Yes1 enzyme = target: T3, human Yes1 enzyme (Homo sapiens, UniProt P07947); test: Yes1 enzyme inhibitory activity (time-resolved fluorometry, biotinylated peptide phosphorylation); conditions: biotinylated peptide phosphorylation, read-out: YES_IC50
T3 construct: made in house
T3 sequence (P07947 whole entry): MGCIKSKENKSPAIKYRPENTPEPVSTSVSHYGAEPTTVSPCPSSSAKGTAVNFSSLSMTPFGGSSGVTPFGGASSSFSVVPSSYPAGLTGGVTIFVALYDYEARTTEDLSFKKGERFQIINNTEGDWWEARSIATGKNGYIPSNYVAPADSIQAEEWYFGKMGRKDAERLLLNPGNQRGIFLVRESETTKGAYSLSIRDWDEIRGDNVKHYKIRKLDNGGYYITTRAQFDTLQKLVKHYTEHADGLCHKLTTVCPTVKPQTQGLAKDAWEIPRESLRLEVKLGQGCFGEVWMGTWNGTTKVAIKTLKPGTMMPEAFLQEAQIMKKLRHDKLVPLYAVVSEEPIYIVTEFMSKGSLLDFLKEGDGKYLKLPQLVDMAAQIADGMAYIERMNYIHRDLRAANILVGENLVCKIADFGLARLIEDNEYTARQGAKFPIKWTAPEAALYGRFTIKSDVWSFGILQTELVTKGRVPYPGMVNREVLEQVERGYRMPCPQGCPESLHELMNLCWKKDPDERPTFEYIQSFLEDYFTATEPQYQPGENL
Summary of the method: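 Inhibition was expressed against a compound-free control to give IC50, using TR-FRET read-out (Eu-cryptate anti-pTyr antibody, streptavidin-XL665).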

T1 sequence (P12931 whole entry): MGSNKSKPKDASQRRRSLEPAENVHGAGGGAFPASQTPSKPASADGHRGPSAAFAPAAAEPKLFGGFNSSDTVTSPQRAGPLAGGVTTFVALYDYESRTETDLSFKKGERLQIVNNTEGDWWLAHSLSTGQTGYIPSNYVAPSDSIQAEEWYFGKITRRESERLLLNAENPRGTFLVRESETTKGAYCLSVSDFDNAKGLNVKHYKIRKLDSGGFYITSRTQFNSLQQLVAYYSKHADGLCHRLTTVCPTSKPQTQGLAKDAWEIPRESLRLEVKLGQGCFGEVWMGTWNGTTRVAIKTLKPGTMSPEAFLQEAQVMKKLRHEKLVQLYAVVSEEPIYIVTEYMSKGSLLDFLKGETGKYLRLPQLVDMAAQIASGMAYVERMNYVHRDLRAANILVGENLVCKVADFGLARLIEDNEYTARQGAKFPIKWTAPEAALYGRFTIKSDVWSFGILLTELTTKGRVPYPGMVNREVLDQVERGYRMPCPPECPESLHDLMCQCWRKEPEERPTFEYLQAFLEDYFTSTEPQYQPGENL

SMILES: Cc1cc(Oc2c(F)cccc2F)ncc1-n1ncc(C(=O)c2cc3cc(OC(F)F)c(C4CCN(S(C)(=O)=O)CC4)cc3[nH]2)c1N [Example 4-17-012, [5-amino-1-[6-(2,6-difluorophenoxy)-4-methylpyridin-3-yl]pyrazol-4-yl]-[5-(difluoromethoxy)-6-(1-methylsulfonylpiperidin-4-yl)-1H-indol-2-yl]methanone]
- IC50 (human Src enzyme): 45 nM
- IC50 (human Lck enzyme): 30 nM
- IC50 (human Yes1 enzyme): 16 nM

SMILES: Cc1cc(Oc2c(F)cccc2F)ncc1-n1ncc(C(=O)c2cc3cc(OC(F)F)c(C4CCN(S(=O)(=O)C5CC5)CC4)cc3[nH]2)c1N [Example 4-17-013, [5-amino-1-[6-(2,6-difluorophenoxy)-4-methylpyridin-3-yl]pyrazol-4-yl]-[6-(1-cyclopropylsulfonylpiperidin-4-yl)-5-(difluoromethoxy)-1H-indol-2-yl]methanone]
- IC50 (human Src enzyme): 46 nM
- IC50 (human Lck enzyme): 37 nM
- IC50 (human Yes1 enzyme): 17 nM

SMILES: CC(=O)N1CCC(c2cc3[nH]c(C(=O)c4cnn(-c5ccc(Oc6ccccc6F)cc5C)c4N)cc3cc2OCC(F)F)CC1 [Example 4-17-014, 1-[4-[2-[5-amino-1-[4-(2-fluorophenoxy)-2-methylphenyl]pyrazole-4-carbonyl]-5-(2,2-difluoroethoxy)-1H-indol-6-yl]piperidin-1-yl]ethanone]
- IC50 (human Src enzyme): 27 nM
- IC50 (human Lck enzyme): 13 nM
- IC50 (human Yes1 enzyme): 4.5 nM

SMILES: Cc1cc(Oc2ccccc2F)ccc1-n1ncc(C(=O)c2cc3cc(OCC(F)F)c(C4CCN(S(C)(=O)=O)CC4)cc3[nH]2)c1N [Example 4-17-015, [5-amino-1-[4-(2-fluorophenoxy)-2-methylphenyl]pyrazol-4-yl]-[5-(2,2-difluoroethoxy)-6-(1-methylsulfonylpiperidin-4-yl)-1H-indol-2-yl]methanone]
- IC50 (human Src enzyme): 14 nM
- IC50 (human Lck enzyme): 14 nM
- IC50 (human Yes1 enzyme): 5 nM

SMILES: Cc1cc(Oc2ccccc2F)ccc1-n1ncc(C(=O)c2cc3cc(OCC(F)F)c(C4CCN(S(=O)(=O)C5CC5)CC4)cc3[nH]2)c1N [Example 4-17-016, [5-amino-1-[4-(2-fluorophenoxy)-2-methylphenyl]pyrazol-4-yl]-[6-(1-cyclopropylsulfonylpiperidin-4-yl)-5-(2,2-difluoroethoxy)-1H-indol-2-yl]methanone]
- IC50 (human Src enzyme): 15 nM
- IC50 (human Lck enzyme): 12 nM
- IC50 (human Yes1 enzyme): 6.4 nM

SMILES: CC(=O)N1CCC(c2cc3[nH]c(C(=O)c4cnn(-c5c(C)cc(Oc6ccccc6F)cc5F)c4N)cc3cc2OCC(F)F)CC1 [Example 4-17-017, 1-[4-[2-[5-amino-1-[2-fluoro-4-(2-fluorophenoxy)-6-methylphenyl]pyrazole-4-carbonyl]-5-(2,2-difluoroethoxy)-1H-indol-6-yl]piperidin-1-yl]ethanone]
- IC50 (human Src enzyme): 17 nM
- IC50 (human Lck enzyme): 5.8 nM
- IC50 (human Yes1 enzyme): 2.1 nM

SMILES: Cc1cc(Oc2ccccc2F)cc(F)c1-n1ncc(C(=O)c2cc3cc(OCC(F)F)c(C4CCN(S(C)(=O)=O)CC4)cc3[nH]2)c1N [Example 4-17-018, [5-amino-1-[2-fluoro-4-(2-fluorophenoxy)-6-methylphenyl]pyrazol-4-yl]-[5-(2,2-difluoroethoxy)-6-(1-methylsulfonylpiperidin-4-yl)-1H-indol-2-yl]methanone]
- IC50 (human Src enzyme): 19 nM
- IC50 (human Lck enzyme): 11 nM
- IC50 (human Yes1 enzyme): 2.4 nM

SMILES: Cc1cc(Oc2ccccc2F)cc(F)c1-n1ncc(C(=O)c2cc3cc(OCC(F)F)c(C4CCN(S(=O)(=O)C5CC5)CC4)cc3[nH]2)c1N [Example 4-17-019, [5-amino-1-[2-fluoro-4-(2-fluorophenoxy)-6-methylphenyl]pyrazol-4-yl]-[6-(1-cyclopropylsulfonylpiperidin-4-yl)-5-(2,2-difluoroethoxy)-1H-indol-2-yl]methanone]
- IC50 (human Src enzyme): 18 nM
- IC50 (human Lck enzyme): 9.1 nM
- IC50 (human Yes1 enzyme): 3.2 nM

SMILES: CC(=O)N1CCC(c2cc3[nH]c(C(=O)c4cnn(-c5cnc(Oc6ccccc6F)cc5C)c4N)cc3cc2OCC(F)F)CC1 [Example 4-17-020, 1-[4-[2-[5-amino-1-[6-(2-fluorophenoxy)-4-methylpyridin-3-yl]pyrazole-4-carbonyl]-5-(2,2-difluoroethoxy)-1H-indol-6-yl]piperidin-1-yl]ethanone]
- IC50 (human Src enzyme): 8.3 nM
- IC50 (human Lck enzyme): 3.3 nM
- IC50 (human Yes1 enzyme): 0.81 nM

SMILES: Cc1cc(Oc2ccccc2F)ncc1-n1ncc(C(=O)c2cc3cc(OCC(F)F)c(C4CCN(S(C)(=O)=O)CC4)cc3[nH]2)c1N [Example 4-17-021, [5-amino-1-[6-(2-fluorophenoxy)-4-methylpyridin-3-yl]pyrazol-4-yl]-[5-(2,2-difluoroethoxy)-6-(1-methylsulfonylpiperidin-4-yl)-1H-indol-2-yl]methanone]
- IC50 (human Src enzyme): 9.7 nM
- IC50 (human Lck enzyme): 5.6 nM
- IC50 (human Yes1 enzyme): 0.76 nM

SMILES: Cc1cc(Oc2ccccc2F)ncc1-n1ncc(C(=O)c2cc3cc(OCC(F)F)c(C4CCN(S(=O)(=O)C5CC5)CC4)cc3[nH]2)c1N [Example 4-17-022, [5-amino-1-[6-(2-fluorophenoxy)-4-methylpyridin-3-yl]pyrazol-4-yl]-[6-(1-cyclopropylsulfonylpiperidin-4-yl)-5-(2,2-difluoroethoxy)-1H-indol-2-yl]methanone]
- IC50 (human Src enzyme): 14 nM
- IC50 (human Lck enzyme): 8 nM
- IC50 (human Yes1 enzyme): 1.3 nM

SMILES: Cc1cc(Oc2c(F)cccc2F)ncc1-n1ncc(C(=O)c2cc3cc(OCC(F)F)c(C4CCN(S(C)(=O)=O)CC4)cc3[nH]2)c1N [Example 4-17-023, [5-amino-1-[6-(2,6-difluorophenoxy)-4-methylpyridin-3-yl]pyrazol-4-yl]-[5-(2,2-difluoroethoxy)-6-(1-methylsulfonylpiperidin-4-yl)-1H-indol-2-yl]methanone]
- IC50 (human Src enzyme): 27 nM
- IC50 (human Lck enzyme): 21 nM
- IC50 (human Yes1 enzyme): 6.8 nM

SMILES: Cc1cc(Oc2c(F)cccc2F)ncc1-n1ncc(C(=O)c2cc3cc(OCC(F)F)c(C4CCN(S(=O)(=O)C5CC5)CC4)cc3[nH]2)c1N [Example 4-17-024, [5-amino-1-[6-(2,6-difluorophenoxy)-4-methylpyridin-3-yl]pyrazol-4-yl]-[6-(1-cyclopropylsulfonylpiperidin-4-yl)-5-(2,2-difluoroethoxy)-1H-indol-2-yl]methanone]
- IC50 (human Src enzyme): 40 nM
- IC50 (human Lck enzyme): 25 nM
- IC50 (human Yes1 enzyme): 11 nM

SMILES: Cc1cc(Oc2c(F)cccc2F)ncc1-n1ncc(C(=O)c2cc3cc(OCC(F)F)c(C4CCN(C(=O)CN)CC4)cc3[nH]2)c1N [Example 4-18-001, 2-amino-1-{4-{2-{5-amino-1-[6-(2,6-difluorophenoxy)-4-methylpyridin-3-yl]pyrazole-4-carbonyl}-5-(2,2-difluoroethoxy)-1H-indol-6-yl}piperidin-1-yl}ethanone]
- IC50 (human Src enzyme): 24 nM
- IC50 (human Lck enzyme): 8.2 nM
- IC50 (human Yes1 enzyme): 3.2 nM

SMILES: Cc1cc(Oc2ccccc2F)ccc1-n1ncc(C(=O)c2cc3cc(OC(F)F)c(C4CCN(C(=O)CN)CC4)cc3[nH]2)c1N [Example 4-18-002, 2-amino-1-[4-[2-[5-amino-1-[4-(2-fluorophenoxy)-2-methylphenyl]pyrazole-4-carbonyl]-5-(difluoromethoxy)-1H-indol-6-yl]piperidin-1-yl]ethanone]
- IC50 (human Src enzyme): 29 nM
- IC50 (human Lck enzyme): 15 nM
- IC50 (human Yes1 enzyme): 5.9 nM

SMILES: Cc1cc(Oc2c(F)cccc2F)ncc1-n1ncc(C(=O)c2cc3cc(OC(F)F)c(C4CCN(C(=O)CN)CC4)cc3[nH]2)c1N [Example 4-18-003, 2-amino-1-[4-[2-[5-amino-1-[6-(2,6-difluorophenoxy)-4-methylpyridin-3-yl]pyrazole-4-carbonyl]-5-(difluoromethoxy)-1H-indol-6-yl]piperidin-1-yl]ethanone]
- IC50 (human Src enzyme): 23 nM
- IC50 (human Lck enzyme): 11 nM
- IC50 (human Yes1 enzyme): 4.8 nM
